From patent US7932286B2, “Method for treating colonic viscerosensitivity and spasticity” (priority 2007, dated 2011)

Tested on: colonic viscerosensitivity and spasticity induced by colonoscopy
Assay: Video-endoscopic colonoscopy after oral pre-treatment, individual case studies
Type: in vivo, human
Description: The patient had received a complete colonoscopy three years before in a hospital based gastro-intestinal unit, and this experience left them very anxious concerning the need for a repeat examination. The occurrence of pain during the procedure as well as the discomfort lasting few hours following the colonoscopic examination, despite parenteral sedation/analgesia, was still vivid in their memories. They wanted to negotiate an alternate diagnostic procedure such as a air-contrast barium enema. […] They were instructed to completed this pharmacological preparation by taking two Fleet® Phospho-soda 45 ml vials with five or six glasses of liquid one in the evening before the examination, and one in the morning two hours before the examination to clean and prepare “clean-rep” the colon. They presented alone to the endoscopy clinic and they were appropriately positioned on their left side on the examination table, and the video-endoscopic colonoscopy was initiated by the endoscopist. The colonoscopy was easily completed to the caecum in 14 minutes. […] The whole colonic examination including the accurate examination of the colon upon retraction of the instrument lasted a total of 25 minutes and was negative for mucosal lesions and for endoluminal polypoid formations. The patient then dressed up and walked to the endoscopist's office to receive the good results of the examination. They were asked several questions on their experience of the new pharmacological preparation as compared to their previous hospital-based unit experience with parenteral sedation/analgesia. […] The endoscopist and the assistant nurse were very satisfied with the ease and shortness of the completed procedure.
As part of a complete investigation, a colonoscopy was planned. They were prescribed Trimebutine maleate 200 mg tablets to be taken orally three times a day for three days before the scheduled examination. They were instructed to complete the pharmacological preparation by taking two Fleet® Phospho-soda 45 ml vials with five or six glasses of liquid, one in the evening before the examination, and one in the morning two hours before the examination to clean and prepare “clean-prep” the colon. They presented to the endoscopy unit with doubts that they could sustain the planned examination without any other drug preparation, having seen in their career many patients having barely tolerated this procedure of full colonoscopy, even after having received before the examination meperidine and midazolam intravenously. They also remembered the “stress experienced by the endoscopist and the assistant nurse working at completing the examination rapidly and successfully reaching the caecum in these patients”. Nonetheless, they consented at trying to receive the examination without further pharmacological preparation, with the promise by the physician that the procedure would be interrupted at their request in the case that they could not tolerate the pain or discomfort. After appropriately positioning the patient on their left side, the instrument was delicately introduced in their rectum, and the progression of the instrument gently initiated. They asked to have their head elevated with a pillow so they could see the video monitor and watch the video-endoscopic recording of their examination. […] The physician and the nurse were surprised by the fact that such a patient presenting a clinical irritable bowel syndrome could experience so little discomfort during the examination since these patients characteristically are chronically suffering from a very low threshold of viscerosentivity with solid or gaseous distension of the colon. After the procedure, they commented that they would accept to repeat the examination any time, and would not hesitate to recommend this pharmacological preparation to patients needing complete colonoscopy, and would be ready to reassure them that there were no more reasons to fear to receive such examination.

[1] = Example 1, patient, 200 mg tablets orally three times a day for three days before examination
[2] = Example 2, patient with clinical irritable bowel syndrome, 200 mg tablets orally three times a day for three days

Trimebutine maleate
recovery after the procedure (Example 1, patient): capable to drive home by themself without any assistance or recovery time
colonic spastic contractions during colonoscopy [1]: No colonic spastic contractions occurred
duration of whole colonic examination including retraction of the instrument [1]: 25 min
pain or discomfort generated by air-distension of the colon [1]: did not generate pain or discomfort
time in which colonoscopy was completed to the caecum (Example 1, patient, 200 mg tablets orally three times a day for three days before examination, no sedation): 14 min
patient-reported pain and discomfort during the procedure (Example 1, patient, questioned after the examination): did not experience any pain and very mild discomfort
discomfort experienced by the patient during the examination [2]: only mild but perfectly tolerable discomfort
progression of the instrument in the patient [2]: easy, painless
spastic contractions during colonoscopy [2]: No spastic contractions delayed the progression of the instrument
time in which the caecum was reached (Example 2, patient with clinical irritable bowel syndrome, 200 mg tablets orally three times a day for three days before examination, no sedation): 12 min
